According to US9809537B2, “Glycosidase inhibitors and uses thereof” (Alectos Therapeutics Inc., priority 2012, dated 2017):

Assay: Apparent permeability (Papp), bi-directional transport
Type: in vitro ADME
Conditions: pig, LLC-PK1, t=3 h, average of A to B and B to A, read-out: Papp LLC-PK1 cells
Description: Assay for Determination of Apparent Permeability (Papp)
Bi-directional transport is evaluated in LLC-PK1 cells in order to determine apparent permeability (Papp). LLC-PK1 cells can form a tight monolayer and therefore can be used to assess vectorial transport of compounds from basolateral to apical (B→A) and from apical to basolateral (A→B).
To determine Papp, LLC-PK1 cells are cultured in 96-well transwell culture plates (Millipore). Solutions containing the test compounds (1 μM) are prepared in Hank's Balanced Salt Solution with 10 mM HEPES. Substrate solution (150 μL) is added to either the apical (A) or the basolateral (B) compartment of the culture plate, and buffer (150 μL) is added to the compartment opposite to that containing the compound. At t=3 h, 50 μL samples are removed from both sides of monolayers dosed with test compound and placed in 96 well plates, scintillant (200 μL) or internal standard (100 μL labetolol 1 μM) is added to the samples and concentration is determined by liquid scintillation counting in a MicroBeta Wallac Trilux scintillation counter (Perkin Elmer Life Sciences, Boston, Mass.) or by LCMS/MS (Applied Biosystems SCIEX API 5000 triple quadruple mass spectrometer). [^3H]Verapamil (1 μM) is used as the positive control. The experiment is performed in triplicate.
The apparent permeability, Papp, is calculated by the following formula for samples taken at t=3 h:
[formula] Where: Volume of Receptor Chamber is 0.15 mL; Area of membrane is 0.11 cm^2; the Initial Concentration is the sum of the concentration measured in the donor plus concentration measured in receiver compartments at t=3 h; A in Concentration is concentration in the receiver compartment at 3 h; and A in Time is the incubation time (3×60×60=10800 s). Papp is expressed as 10^−6 cm/s. The Papp (LLC-PK1 cells) are the average of the Papp for transport from A to B and Papp for transport from B to A at t=3 h: […]

CC(=O)NC[C@@H]1[C@@H](O)[C@H](O)[C@@H](CO)N1CCCc1ccc(-c2ccccc2)cc1 [Example 3, N-(((2R,3R,4R,5R)-1-(3-([1,1′-biphenyl]-4-yl)propyl)-3,4-dihydroxy-5-(hydroxymethyl)pyrrolidin-2-yl)methyl)acetamide]
Papp at 3 h, 1 μM: 5 ×10⁻⁶ cm/s
